Experimental data taken from ChEMBL document CHEMBL1201862, “PubChem BioAssay data set” (2004).
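Exposure lasted 48 hours, with cells grown in 96-well plates and compounds tested at five concentrations. Abbreviation: GI50, concentration required for 50% inhibition of growth.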 Activity calls are given as the source filed them. Rule as the data show it: active = GI50 up to about 1.1 µM and inactive = higher.

How the values were obtained:
Experiment in all cases: NCI-60 cell line screen, 48 h
LOX IMVI = tested on: LOX IMVI
UO-31 = tested on: UO-31
UACC-257 = tested on: UACC-257
OVCAR-4 = tested on: OVCAR-4
NCI-H460 = tested on: NCI-H460
HT-29 = tested on: HT-29
SF-268 = tested on: SF-268
MOLT-4 = tested on: MOLT-4
SN12C = tested on: SN12C
NCI-H522 = tested on: NCI-H522
OVCAR-5 = tested on: OVCAR-5
UACC-62 = tested on: UACC-62
Hs-578T = tested on: Hs-578T
SNB-75 = tested on: SNB-75
NCI-H23 = tested on: NCI-H23
786-0 = tested on: 786-0
M14 = tested on: M14
TK-10 = tested on: TK-10
ACHN = tested on: ACHN
T47D = tested on: T47D

SMILES	GI50 (LOX IMVI)	GI50 (UO-31)	GI50 (UACC-257)	GI50 (OVCAR-4)	GI50 (NCI-H460)	GI50 (HT-29)	GI50 (SF-268)	GI50 (MOLT-4)	GI50 (SN12C)	GI50 (NCI-H522)	GI50 (OVCAR-5)	GI50 (UACC-62)	GI50 (Hs-578T)	GI50 (SNB-75)	GI50 (NCI-H23)	GI50 (786-0)	GI50 (M14)	GI50 (TK-10)	GI50 (ACHN)	GI50 (T47D)
CN[C@@H]1C[C@H]2O[C@@](C)([C@@H]1OC)n1c3ccccc3c3c4c(c5c6ccccc6n2c5c31)C(=O)N[C@@H]4O	0.0331 µM (active)	< 0.0151 µM (active)	0.0603 µM (active)	0.0526 µM (active)	0.04 µM (active)	0.125 µM (active)	0.0408 µM (active)	0.0259 µM (active)	0.0208 µM (active)	0.0484 µM (active)	0.015 µM (active)	0.0282 µM (active)	0.00454 µM (active)	< 0.0121 µM (active)	0.0338 µM (active)	0.0266 µM (active)	0.0255 µM (active)	–	–	–
CC(=O)c1ccc2c(c1)oc(=O)n2CCN1CCCCC1	> 100 µM (inactive)	–	> 100 µM (inactive)	–	> 100 µM (inactive)	> 100 µM (inactive)	> 100 µM (inactive)	> 100 µM (inactive)	> 100 µM (inactive)	–	> 100 µM (inactive)	> 100 µM (inactive)	93.5 µM (inactive)	–	> 100 µM (inactive)	> 100 µM (inactive)	> 100 µM (inactive)	> 100 µM (inactive)	> 100 µM (inactive)	–
CN1C(=O)C(C#N)C2C[C@@]1(C)Oc1ccccc12 (some centres not stated)	> 100 µM (inactive)	> 100 µM (inactive)	> 100 µM (inactive)	> 100 µM (inactive)	91.8 µM (inactive)	> 100 µM (inactive)	> 100 µM (inactive)	7.29 µM (inactive)	–	> 100 µM (inactive)	> 100 µM (inactive)	> 100 µM (inactive)	> 100 µM (inactive)	> 100 µM (inactive)	> 100 µM (inactive)	> 100 µM (inactive)	> 100 µM (inactive)	> 100 µM (inactive)	> 100 µM (inactive)	–
CCOC(=O)[C@]12C(=C(c3ccccc3)O[C@H]3C=CCC[C@H]31)C(=O)C(=O)N2c1ccccc1	–	> 100 µM (inactive)	–	> 100 µM (inactive)	> 100 µM (inactive)	60 µM (inactive)	> 100 µM (inactive)	21.4 µM (inactive)	> 100 µM (inactive)	24 µM (inactive)	> 100 µM (inactive)	> 100 µM (inactive)	–	–	> 100 µM (inactive)	> 100 µM (inactive)	> 100 µM (inactive)	> 100 µM (inactive)	> 100 µM (inactive)	> 100 µM (inactive)
Cc1nn(-c2ccccc2)c2nc3c(c(C)nn3-c3ccccc3)c(-c3ccc(C(F)(F)F)cc3)c12	> 100 µM (inactive)	> 100 µM (inactive)	> 100 µM (inactive)	> 100 µM (inactive)	> 100 µM (inactive)	52.8 µM (inactive)	44.7 µM (inactive)	> 100 µM (inactive)	> 100 µM (inactive)	–	> 100 µM (inactive)	> 100 µM (inactive)	–	39.4 µM (inactive)	> 100 µM (inactive)	60.1 µM (inactive)	> 100 µM (inactive)	> 100 µM (inactive)	> 100 µM (inactive)	> 100 µM (inactive)
Nc1nc(S)nc(C(=O)Nc2nccs2)c1-c1ccccc1	> 100 µM (inactive)	> 100 µM (inactive)	> 100 µM (inactive)	> 100 µM (inactive)	> 100 µM (inactive)	> 100 µM (inactive)	> 100 µM (inactive)	> 100 µM (inactive)	> 100 µM (inactive)	> 100 µM (inactive)	> 100 µM (inactive)	> 100 µM (inactive)	–	> 100 µM (inactive)	> 100 µM (inactive)	> 100 µM (inactive)	> 100 µM (inactive)	> 100 µM (inactive)	> 100 µM (inactive)	–
COC(=O)CC(=O)OC1C[C@@H]2CCC3C(C)(C)CCC[C@]3(C)C23CC[C@@]1(C)C3 (some centres not stated)	17.8 µM (inactive)	19.4 µM (inactive)	19.1 µM (inactive)	16.9 µM (inactive)	19.8 µM (inactive)	19.2 µM (inactive)	18.5 µM (inactive)	53.8 µM (inactive)	17.5 µM (inactive)	12.9 µM (inactive)	16.1 µM (inactive)	16.3 µM (inactive)	–	27.9 µM (inactive)	18.4 µM (inactive)	16.3 µM (inactive)	18 µM (inactive)	19.1 µM (inactive)	17.5 µM (inactive)	–
NC1CC2NC3CCCCC3NC2CC1N (configuration not stated)	31.6 µM (inactive)	27 µM (inactive)	37.9 µM (inactive)	–	29 µM (inactive)	27.4 µM (inactive)	50.8 µM (inactive)	24.9 µM (inactive)	35 µM (inactive)	12.6 µM (inactive)	42.7 µM (inactive)	33.6 µM (inactive)	27.9 µM (inactive)	25.1 µM (inactive)	32.4 µM (inactive)	30 µM (inactive)	67.9 µM (inactive)	41.8 µM (inactive)	24.9 µM (inactive)	–
Nc1c(-c2cn(Cc3ccccc3)c3ccccc23)[n+]([O-])c2ccccc2[n+]1[O-]	24.2 µM (inactive)	10.2 µM (inactive)	12.8 µM (inactive)	43.6 µM (inactive)	28.5 µM (inactive)	27.2 µM (inactive)	21.5 µM (inactive)	16.8 µM (inactive)	31.8 µM (inactive)	13.2 µM (inactive)	25.6 µM (inactive)	23.6 µM (inactive)	–	16.4 µM (inactive)	22 µM (inactive)	30.7 µM (inactive)	25.4 µM (inactive)	28.3 µM (inactive)	15.5 µM (inactive)	–
N#Cc1nc(-c2ccccn2)oc1N	> 100 µM (inactive)	> 100 µM (inactive)	> 100 µM (inactive)	> 100 µM (inactive)	> 100 µM (inactive)	> 100 µM (inactive)	> 100 µM (inactive)	> 100 µM (inactive)	> 100 µM (inactive)	> 100 µM (inactive)	> 100 µM (inactive)	> 100 µM (inactive)	> 100 µM (inactive)	–	> 100 µM (inactive)	> 100 µM (inactive)	–	> 100 µM (inactive)	> 100 µM (inactive)	–
CSCCCNC(=O)c1csc(-c2csc(CCNC(=O)CNC(=O)CNC(=O)CNC(=O)OC(C)(C)C)n2)n1	> 100 µM (inactive)	> 100 µM (inactive)	> 100 µM (inactive)	> 100 µM (inactive)	> 100 µM (inactive)	> 100 µM (inactive)	> 100 µM (inactive)	> 100 µM (inactive)	> 100 µM (inactive)	> 100 µM (inactive)	> 100 µM (inactive)	> 100 µM (inactive)	> 100 µM (inactive)	> 100 µM (inactive)	> 100 µM (inactive)	> 100 µM (inactive)	> 100 µM (inactive)	> 100 µM (inactive)	> 100 µM (inactive)	–
